pIC50, pKi: −log10 of the molar value. Like-named read-outs stand apart in the source and are kept apart here.
Experiments:
[1] = test system: Cells containing hepatitis C virus (HCV) replicon; assay: HCV replicon cell assay, Taqman real-time RT-PCR of HCV RNA level; type: cell-based; conditions: read-out: IC50 (concentration at which 50% inhibition of HCV RNA level is observed)
Method: As set forth above, the compounds of this invention are capable of inhibiting the activity of HCV NS3-NS4A protease. In order to quantitate the activity of the compounds of this invention, cells containing HCV replicon were incubated with the compounds of this invention, and a Taqman Real Time PCR assay was conducted to determine the percentage inhibition of HCV RNA level and the IC50 were calculated therefrom. The result are shown below in Table 1:
Cells containing hepatitis C virus (HCV) replicon were maintained in DMEM containing 10% fetal bovine serum (FBS), 0.25 mg per ml of G418, with appropriate supplements (media A).
On day 1, replicon cell monolayer was treated with a trypsin:EDTA mixture, removed, and then dilutedh media A into a final concentration of 100,000 cells per ml wit. 10,000 cells in 100 ul are plated into each well of a 96-well tissue culture plate, and culture overnight in a tissue culture incubator at 37° C.
On day 2, compounds (in 100% DMSO) were serially diluted into DMEM containing 2% FBS, 0.5% DMSO, with appropriate supplements (media B). The final concentration of DMSO was maintained at 0.5% throughout the dilution series.
The media on the replicon cell monolayer was removed, and then media B containing various concentrations of compounds was added. Media B without any compound was added to other wells as no compound controls.
Cells were incubated with compound or 0.5% DMSO in media B for 48 hours in a tissue culture incubator at 37° C.
At the end of the 48-hour incubation, the media was removed, and the replicon cell monolayer was washed once with PBS and stored at −80° C. prior to RNA extraction.
Culture plates with treated replicon cell monolayers were thawed, and a fixed amount of another RNA virus, such as Bovine Viral Diarrhea Virus (BVDV) was added to cells in each well. RNA extraction reagents (such as reagents from RNeasy kits) were added to the cells immediately to avoid degradation of RNA. Total RNA was extracted according the instruction of manufacturer with modification to improve extraction efficiency and consistency. Finally, total cellular RNA, including HCV replicon RNA, was eluted and stored at −80° C. until further processing.
A Taqman real-time RT-PCR quantification assay was set up with two sets of specific primers and probe. One was for HCV and the other was for BVDV. Total RNA extractants from treated HCV replicon cells were added to the PCR reactions for quantification of both HCV and BVDV RNA in the same PCR well. Experimental failure was flagged and rejected based on the level of BVDV RNA in each well. The level of HCV RNA in each well was calculated according to a standard curve that is run in the same PCR plate. The percentage of inhibition or decrease of HCV RNA level due to compound treatment was calculated using the DMSO or no compound control as 0% of inhibition. The IC50 (concentration at which 50% inhibition of HCV RNA level is observed) was calculated from the titration curve of any given compound.

HCV NS3-NS4A protease = HCV NS3-NS4A protease (Hepatitis C virus genotype 1a, UniProt P27958); assay: Ki determination, HPLC microbore assay with 5AB peptide substrate, tNS3 and KK4A cofactor; type: biochemical
Method: The Ki determinations were performed as follows. The Ki values for some compounds of the present invention are recited above in Table 1.
HPLC Microbore Method for Separation of 5AB Substrate and Products Substrate
NH2-Glu-Asp-Val-Val-(alpha)Abu-Cys-Ser-Met-Ser-Tyr-COOH Stock solution of 20 mM 5AB was made in DMSO w/0.2M DTT. This was stored in aliquots at −20 C.
Buffer: 50 mM HEPES, pH 7.8; 20% glycerol; 100 mM NaCl Total assay volume was 200 μL
The buffer was combined with KK4A, DTT, and tNS3; 177 μL of this solution was distributed each into wells of 96 well plate and incubated at 30° C. for ˜5-10 min. 3 μL of appropriate concentration of test compound dissolved in DMSO (DMSO only for control) was added to each well and incubate at 30° C. for 15 min. Reaction was initiated by addition of 20 μL of 200 μM 5AB substrate (20 μM concentration is equivalent or slightly lower than the Km for 5AB) and incubated for 20 min at 30° C. The reaction was terminated by addition of 50 μL of 10% TFA 200 μL aliquots were transferred to HPLC vials The SMSY product was isolated from substrate and KK4A by the method which follows. Microbore Separation Method • Instrumentation: • Hewlett Packard 1100 • Degasser G1322A • Binary pump G1312A • Autosampler G1313A • Column themostated chamber G1316A • Diode array detector G1315A • Column: Phenomenex Jupiter; 5 micron C18; 300 angstroms; • 150×2 mm; P/O 00F-4053-B0 • Column thermostat: 40° C. • Injection volume: 100 μL • Solvent A=HPLC grade water+0.1% TFA • Solvent B=HPLC grade acetonitrile+0.1% TFA
• Stop time: 17 min • Post-run time: 10 min

[2] = HCV replicon cells, 48 hours incubation, 2% FBS, 0.5% DMSO
[3] = 25 nM tNS3, 25 μM KK4A, 20 μM 5AB substrate, 30° C., pH 7.8, read-out: Ki

Sequence of HCV NS3-NS4A protease (P27958 1027-1208, other chains not shown): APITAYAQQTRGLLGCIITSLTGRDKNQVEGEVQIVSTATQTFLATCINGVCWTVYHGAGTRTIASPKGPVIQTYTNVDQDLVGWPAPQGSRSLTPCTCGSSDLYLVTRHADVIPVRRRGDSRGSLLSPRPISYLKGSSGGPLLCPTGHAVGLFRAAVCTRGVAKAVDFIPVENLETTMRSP

Compound: CCC[C@H](NC(=O)[C@@H]1[C@H]2CC[C@H](C2)N1C(=O)[C@@H](NC(=O)[C@@H](NC(=O)c1ncc[nH]1)C1CCCCC1)C(C)(C)C)C(=O)C(=O)N[C@@H](C)c1ccccc1 [Cmpd 12]
- pIC50 [1, 2]: 6.39
- pKi (HCV NS3-NS4A protease): 7.17

Compound: CCCC(NC(=O)[C@@H]1[C@H]2CC[C@H](C2)N1C(=O)[C@@H](NC(=O)[C@@H](NC(=O)[C@H](CNC(=O)OC)NC(=O)OC)C1CCCCC1)C(C)(C)C)C(=O)C(=O)NC1CC1 (some centres unmarked) [Cmpd 5]
- pIC50 [1, 2]: 5.85
- pKi (HCV NS3-NS4A protease): 7.41

Compound: CCCC(NC(=O)[C@@H]1[C@H]2CC[C@H](C2)N1C(=O)[C@@H](NC(=O)[C@@H](NC(=O)[C@H](CNC(=O)OC)NC(=O)OC)C1CCCCC1)C(C)C)C(=O)C(=O)NC1CC1 (some centres unmarked) [Cmpd 4]
- pIC50 [1, 2]: < 5.00
- pKi (HCV NS3-NS4A protease): 7.02

Compound: C[C@H](NS(C)(=O)=O)C(=O)N[C@H](C(=O)N[C@H](C(=O)N1[C@@H]2CC[C@@H](C2)[C@H]1C(=O)N[C@@H](CC(F)F)C(=O)C(=O)NC1CC1)C(C)(C)C)C1CCCCC1 [Cmpd 10]
- pIC50 [1, 2]: 5.00
- pKi (HCV NS3-NS4A protease): 7.55

Compound: CCC[C@H](NC(=O)[C@@H]1[C@H]2CC[C@H](C2)N1C(=O)[C@@H](NC(=O)[C@@H](NC(=O)[C@H](C)NS(C)(=O)=O)C1CCCCC1)C(C)(C)C)C(=O)C(=O)NC1CC1 [Cmpd 9]
- pIC50 ([1]; 48 h): 5.37
- pKi (HCV NS3-NS4A protease; [3]): 7.26

Compound: CCC[C@H](NC(=O)[C@@H]1[C@H]2CC[C@H](C2)N1C(=O)[C@@H](NC(=O)[C@@H](NC(=O)[C@H](C)NC(=O)C(C)(C)C)C1CCCCC1)C(C)(C)C)C(=O)C(=O)NC1CC1 [Cmpd 15]
- pIC50 [1, 2]: 5.89
- pKi (HCV NS3-NS4A protease): 7.18

Compound: CCCC(NC(=O)[C@@H]1[C@H]2CC[C@H](C2)N1C(=O)[C@@H](NC(=O)[C@@H](NC(=O)[C@H](CNC(=O)OC)NC(=O)OC)C1CCCCC1)C(C)C)C(=O)C(=O)N[C@@H](C)c1ccccc1 (some centres unmarked) [Cmpd 6]
- pIC50 [1, 2]: 5.58
- pKi (HCV NS3-NS4A protease): 7.02

Compound: CCC[C@H](NC(=O)[C@@H]1[C@H]2CC[C@H](C2)N1C(=O)[C@@H](NC(=O)[C@@H](NC(=O)c1ncc[nH]1)C1CCCCC1)C(C)(C)C)C(=O)C(=O)NC1CC1 [Cmpd 13]
- pIC50 [1, 2]: 6.60
- pKi (HCV NS3-NS4A protease): 7.38

Compound: CC(C)(C)[C@H](NC(=O)[C@@H](NC(=O)c1cnccn1)C1CCCCC1)C(=O)N1C(C(=O)NC(CC(F)F)C(=O)C(=O)NC2CC2)[C@H]2CC[C@@H]1C2 (some centres unmarked) [Cmpd 3]
- pIC50 [1, 2]: 6.20
- pKi (HCV NS3-NS4A protease): 7.20

Compound: CCC[C@H](NC(=O)[C@@H]1[C@H]2CC[C@H](C2)N1C(=O)[C@@H](NC(=O)[C@@H](NC(=O)c1cnccn1)C1CCCCC1)C(C)C)C(=O)C(=O)NC1CC1 [Cmpd 1]
- pIC50 ([1]; 48 h): < 6.00
- pKi (HCV NS3-NS4A protease; [3]): 6.66

Compound: CCC[C@H](NC(=O)C1[C@H]2CC[C@H](C2)N1C(=O)[C@@H](NC(=O)[C@@H](NC(=O)c1cnccn1)C1CCCCC1)C(C)(C)C)C(=O)C(=O)NC1CC1 (some centres unmarked) [Cmpd 2]
- pIC50 [1, 2]: 6.05
- pKi (HCV NS3-NS4A protease): 7.05

Compound: CCCC(NC(=O)[C@@H]1[C@H]2CC[C@H](C2)N1C(=O)[C@@H](NC(=O)[C@@H](NC(=O)c1cnccn1)C1CCCCC1)C(C)(C)C)C(=O)C(=O)N[C@@H](C)c1ccccc1 (some centres unmarked) [Cmpd 8]
- pIC50 [1, 2]: 6.17
- pKi (HCV NS3-NS4A protease): 6.96

Compound: CCCC(NC(=O)[C@@H]1[C@H]2CC[C@H](C2)N1C(=O)[C@@H](NC(=O)[C@@H](NC(=O)[C@H](CNC(=O)OC)NC(=O)OC)C1CCCCC1)C(C)(C)C)C(=O)C(=O)N[C@@H](C)c1ccccc1 (some centres unmarked) [Cmpd 7]
- pIC50 [1, 2]: 6.35
- pKi (HCV NS3-NS4A protease): 7.31

Compound: CCC[C@H](NC(=O)[C@@H]1[C@H]2CC[C@H](CC2)N1C(=O)C(NC(=O)[C@@H](NC(=O)c1cnccn1)C1CCCCC1)C(C)(C)C)C(=O)C(=O)NC1CC1 (some centres unmarked) [Cmpd 14]
- pIC50 [1, 2]: 5.91
- pKi (HCV NS3-NS4A protease): 6.90

Compound: CCCC(NC(=O)[C@@H]1[C@H]2CC[C@H](C2)N1C(=O)[C@@H](NC(=O)[C@@H](NC(=O)[C@H](C)NS(C)(=O)=O)C1CCCCC1)C(C)(C)C)C(=O)C(=O)N[C@@H](C)c1ccccc1 (some centres unmarked) [Cmpd 11]
- pIC50 ([1]; 48 h): 5.91
- pKi (HCV NS3-NS4A protease; [3]): 7.30

Compound: CCC[C@H](NC(=O)[C@@H]1[C@H]2CC[C@H](C2)N1C(=O)[C@@H](NC(=O)[C@@H](NC(=O)c1[nH]c(C)c(C)c1C(C)=O)C1CCCCC1)C(C)(C)C)C(=O)C(=O)NC1CC1 [Cmpd 16]
- pIC50 [1, 2]: > 7.00
- pKi (HCV NS3-NS4A protease): 7.27

Reference: US6909000B2, “Bridged bicyclic serine protease inhibitors” (Vertex Pharmaceuticals Incorporated, priority 2001, dated 2005)
